The numbers were not newly measured in patent publication US9445940B2, “System and method for inducing hypothermia with control and determination of catheter pressure” (Zoll Circulation, Inc., priority 2003, dated 2016), which cites them from elsewhere.

Each structure is given as a SMILES string.

The data set relates to shivering threshold. As to conditions: stated as believed, no experiment by the applicant.

Take `CCOC(=O)C1(c2ccccc2)CCN(C)CC1` [Meperidine]: the “decrease of shivering threshold relative to vasoconstriction threshold” value is listed as “twice as much as the vasoconstriction threshold”.
